For 5 compounds, Ki results are on record in ChEMBL document CHEMBL1129207, “Altering the specificity of subtilisin B. Lentus by combining site-directed mutagenesis and chemical modification” (Bioorg Med Chem Lett, 1996).

Holding throughout (set-up): species or system Lederbergia lenta
Test [1] is described as follows: Compound was evaluated for the inhibition of SBL-M222C enzyme.
A short description of test [2]: Compound was evaluated for the inhibition of SBL-M222C-SEtNH3+ enzyme.
Test [3] in a line: Compound was evaluated for the inhibition of SBL-M222C-SEtSO3- enzyme.
The nature of test [4]: Compound was evaluated for the inhibition of SBL-M222C-SMe enzyme.
Test [5] can be described thus: Compound was evaluated for the inhibition of SBL-WT enzyme.

The Ki is the equilibrium dissociation constant of an inhibitor or competing ligand from its target. Low values mean higher affinity, high ones lower affinity.

Consider `Nc1cccc(B(O)O)c1`, for which the Ki is 204 µM in test [1]; 127 µM in test [2]; 176 µM in test [3]; 139 µM in test [4]; 150 µM in test [5].
As for `OB(O)c1cccc(-c2ccccc2)c1`, the Ki in test [1] was found to be 31 µM; in test [2], 40 µM; in test [3] it was 25 µM; in test [4], 153 µM; in test [5] it was 327 µM.
As for `OB(O)c1ccccc1` [PHENYLBORONIC ACID], the Ki was 155 µM in test [1]; 108 µM in test [2]; 146 µM in test [3]; 123 µM in test [4]; 141 µM in test [5].
As to `OB(O)c1ccc(Br)cc1`, the Ki in test [1] is 23 µM; in test [2], 10.5 µM; in test [3], 15.6 µM; in test [4], 11.2 µM; in test [5] it was 23 µM.
For the compound `OB(O)c1ccc(Cl)cc1Cl`, the inhibition constant Ki in test [1] is 18 µM; in test [2], 8.9 µM; in test [3], 11 µM; in test [4], 3.8 µM; in test [5], 9.2 µM.
